Reference: PMC5543143, “Structural Basis for the Mechanism of ATP-Dependent Acetone Carboxylation” (Scientific Reports, 2017)
Like-named read-outs stand apart in the source and are kept apart here.

Assays:
[1] = biological target: T1, acetone carboxylase (AC, XaAC), recombinant (Xanthobacter versatilis, UniProt Q8RM03+Q8RM04); conditions: turnover only
T1 construct: gene acxA

[2] = biological target: T2, native acetone carboxylase (AC) from X. autotrophicus 7C (Xanthobacter versatilis, UniProt Q8RM03+Q8RM04); parameters: gene acxA; conditions: with acetone and HCO3-; turnover only
T2 sequence (Q8RM04 whole entry, one chain of several): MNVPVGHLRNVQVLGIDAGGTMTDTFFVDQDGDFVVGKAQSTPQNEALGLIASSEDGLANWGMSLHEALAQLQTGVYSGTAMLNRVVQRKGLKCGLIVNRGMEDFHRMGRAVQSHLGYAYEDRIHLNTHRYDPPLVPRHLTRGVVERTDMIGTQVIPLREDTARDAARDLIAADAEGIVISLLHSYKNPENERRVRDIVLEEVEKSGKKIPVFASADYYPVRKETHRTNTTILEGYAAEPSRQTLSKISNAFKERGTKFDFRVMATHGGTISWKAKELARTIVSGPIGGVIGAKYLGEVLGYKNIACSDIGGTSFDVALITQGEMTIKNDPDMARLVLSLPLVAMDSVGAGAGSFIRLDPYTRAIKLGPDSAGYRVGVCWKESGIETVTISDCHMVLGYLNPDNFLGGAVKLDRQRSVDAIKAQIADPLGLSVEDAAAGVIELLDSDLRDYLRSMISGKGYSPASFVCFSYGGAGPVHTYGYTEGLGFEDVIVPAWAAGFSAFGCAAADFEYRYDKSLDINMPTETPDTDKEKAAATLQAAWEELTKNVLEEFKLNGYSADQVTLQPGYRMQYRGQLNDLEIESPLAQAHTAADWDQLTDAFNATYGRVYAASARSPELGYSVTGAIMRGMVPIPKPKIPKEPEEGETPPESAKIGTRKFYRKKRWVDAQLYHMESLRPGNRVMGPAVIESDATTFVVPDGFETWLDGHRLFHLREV
T2 sequence (Q8RM02 2-168, one chain of several, further chain): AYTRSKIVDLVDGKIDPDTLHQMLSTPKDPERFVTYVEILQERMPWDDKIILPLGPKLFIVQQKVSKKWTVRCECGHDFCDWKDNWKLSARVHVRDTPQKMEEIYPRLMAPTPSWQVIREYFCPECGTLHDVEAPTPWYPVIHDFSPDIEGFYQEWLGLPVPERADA

[3] = biological target: T2, native acetone carboxylase (AC) from X. autotrophicus 7C; experiment: X-ray crystal structure; type: binding; parameters: gene acxA; native purification from acetone-grown cells, untagged; (alpha beta gamma)2 heterohexamer, 360 kDa; with Acetone carboxylase gamma subunit; conditions: co-crystallised with 10 mM ATP and 10 mM acetone; AMP bound at beta subunit; acetate at Mn site; pH 7.5
[4] = biological target: the molecule itself; experiment: crystal structure; recombinant AC (αβγ)2, ligand-free and AMP-bound; hanging drop, 25 °C, 14-18% PEG 3350, 0.2 M MgSO4, pH 6.3; nucleotide additives 5 mM; SAD with selenium

T1 sequence (Q8RM04 whole entry, one chain of several): as the sequence (Q8RM04 whole entry, one chain of several) above
T1 sequence (Q8RM02 2-168, one chain of several, further chain): as the sequence (Q8RM02 2-168, one chain of several, further chain) above

## Nc1ncnc2c1ncn2[C@@H]1O[C@H](COP(=O)(O)OP(=O)(O)OP(=O)(O)O)[C@@H](O)[C@H]1O [ATP]
[1]; with acetone and HCO3-
  coupled spectrophotometric assay with 3-hydroxybutyrate dehydrogenase: actively catalyzed the ATP- and HCO3 ^− -dependent carboxylation of acetone to acetoacetate
[2]
  acetone carboxylation activity: actively catalyzed the ATP- and HCO3 ^− -dependent carboxylation of acetone to acetoacetate

## Nc1ncnc2c1ncn2[C@@H]1O[C@H](COP(=O)(O)O)[C@@H](O)[C@H]1O [AMP]
[3]
  X-ray crystal structure: with AMP bound and no acetone visible in the density

## CC(C)=O [acetone]
[1]; ATP and HCO3- dependent carboxylation to acetoacetate
  coupled spectrophotometric assay with 3-hydroxybutyrate dehydrogenase: actively catalyzed the ATP- and HCO3 ^− -dependent carboxylation of acetone to acetoacetate

B1: acetone carboxylase α subunit (AcxB) from Xanthobacter autotrophicus Py2, recombinant (natural protein, UniProt Q8RM03 1-776, looked up)
chain: MNVTVDQSTLAGATRGIVRGGETLKEHRDRLMAATKATGRYAGLKTLELREREPILYNKLFSRLRAGVVDARETAKKIAASPIVEQEGELCFTLYNAAGDSLLTSTGIIIHVGTMGAAIKYMIENNWEANPGVHDKDIFCNNDSLIGNVHPCDIHTIVPIFWEGELIGWVGGVTHVIDTGAVGPGSMATGQVQRFGDGYSITCRKVGANDTLFRDWLHESQRMVRTTRYWMLDERTRIAGCHMIRKLVEEVVAEEGIEAYWKFAYEAVEHGRLGLQARIKAMTIPGTYRQVGFVDVPYAHEDVRVPSDFAKLDTIMHAPCEMTIRRDGTWRLDFEGSSRWGWHTYNAHQVSFTSGIWVMMTQTLIPSEMINDGAAYGTEFRLPKGTWMNPDDRRVAFSYSWHFLVSAWTALWRGLSRSYFGRGYLEEVNAGNANTSNWLQGGGFNQYDEIHAVNSFECAANGTGATAVQDGLSHAAAIWNPEGDMGDMEIWELAEPLVYLGRQIKASSGGSGKYRGGCGFESLRMVWNAKDWTMFFMGNGHISSDWGLMGGYPAASGYRFAAHKTNLKELIASGAEIPLGGDTDPENPTWDAMLPDAQIKRDKQAITTEEMFSDYDLYLNYMRGGPGFGDPLDREPQAVADDINGGYVLERFAGEVYGVVVRKGADGQYGVDEAGTAAARAQIRKDRLAKSVPVSEWMKGEREKILAKDAGTQVRQMFAASFKLGPRFEKDFRTFWSLPDSWTLPEEEIGVPTYGSRYSMDISELPDVHTVQFVEE
notes: acetone carboxylase α subunit (75 kDa), gene acxB (Xaut_3510), X. autotrophicus Py2; amplified from the start to the stop codon; Subunit of the (αβγ)2 heterohexamer; The initial structure was solved from selenomethionine-labelled protein; also called AC α; Xaut_3510; source: E. coli BL21(DE3), co-expressed with the β and γ subunits, purified (His-NTA, desalting)
[4]
  binding result: binds
